Measured values as given in patent US9440926B2, “Antiviral compounds and methods” (Biotron Limited, priority 2005, dated 2016).
Read-outs that look alike come from different tables or passages of the source.

Tests used:
Assay type in all cases: cell-based
HIV-1 strain Ba-L = assay: HIV-1 Ba-L growth inhibition in primary macrophages (p24 ELISA); conditions: for IC50: Human immunodeficiency virus 1, BAL, Primary macrophage; for AI (Antiviral Index): calculated by formula from TC50 and IC50, HIV-1Ba-L in primary macrophages
Experimental: The inhibition specifically of HIV-1 growth by the compounds of the invention was tested in primary macrophages in vitro using a method similar to that used to assess antibody neutralization (VanCott T C et al (1999)). In the present case, the laboratory adapted HIV-1 strain Ba-L was used, which is known to infect macrophages.
Peripheral Blood Mononuclear Cells (PBMC) were prepared from healthy donors using buffy-coat packs obtained from the Australian Red Cross Blood Service (ARCBS). Blood was received the day following donation, and had been depleted of serum and platelets, leaving a small volume (less than 100 mL) of concentrated leukocytes.
Leukocytes were separated from blood cells and granulocytes by density gradient centrifugation (Ficoll Paque) and washed extensively in PBS^− (without Ca/Mg) to remove platelets. Recovered cells were allowed to adhere to plastic tissue culture flasks (Becton Dickinson) for 2 hr, 37° C., 5% CO2, in media (DMEM (high)/10% AB serum/50 ug/mL gentamicin/2 mM L-glutamine) during which time the myeloid cells formed an adherent monolayer leaving lymphocytes unattached.
Non-adherent lymphocytes were removed by washing with warm PBS^+ (with Ca/Mg) and were generally discarded. In some cases those cells were recovered and frozen in media/10% DMSO for use in viral stock infections. The adherent monocytes were recovered by scraping gently with a plastic cell scraper. The myeloid cells were then plated into 96-well plates at a cell concentration of 1.5×10^6/mL, and allowed to fully differentiate over a period of 14 days.
Macrophages were allowed to differentiate over a 14 day period, with media changes as required. On day 14, cells were infected in the presence of decreasing concentrations of BIT compounds over a range 0-10 μM. Samples of 25 μL culture supernatants were removed from each well on day 7 and fresh media plus compound dilution was added.
After 7 days the samples with and without compound were analysed to assess the level of virus present in the wells, using a p24 ELISA (Innotest). Virus levels in samples were converted to “percentage of control virus growth” values based on the controls (containing no compound). From that dose response curve (example FIG. 1) the IC50 was calculated and used as a measure of compound anti-HIV activity.

[1] = Cytotoxicity to cells in the viral inhibition assay (MTT assay); conditions: human, primary human macrophages, read-out: TC50 (the source's name)
Experimental: The toxicity of test compounds to cells in the viral inhibition assay was determined using the MTT assay (Pauwels R, et al. (1988); D'Cruz O J et al. (1999); Joo H. (2003)). This method utilises Thiazolyl Blue (MTT), which is added to the cell culture (100 ug/well), and incubated for 4-5 hours whilst the live, metabolically active cells convert the chemical to its purple coloured metabolite, which forms intracellular crystals. The purple colour is measured colourimetrically (570-590 nm) once cells have been permeabilised using acidified isopropanol containing 10% triton X-100. The most intense colour development occurs in wells where the metabolising cells are most numerous. […] Those values were estimated manually from the Percentage Viability vs Concentration dose response curves (FIG. 1). The compound toxicity to cells in culture was taken into account in inhibition experiments and in separate experiments involving increased concentrations of compound. TC50 values were estimated in separate experiments (not shown) where concentrations of compound were greater.

Vpu = molecular target: T1, Vpu (Human immunodeficiency virus type 1 group M subtype B, UniProt P05919); assay: Bacterial bioassay, Vpu; conditions: mean bacterial bioassay score; Vpu of HIV
T1 construct: expressed in transfected cells
T1 sequence (P05919 whole entry): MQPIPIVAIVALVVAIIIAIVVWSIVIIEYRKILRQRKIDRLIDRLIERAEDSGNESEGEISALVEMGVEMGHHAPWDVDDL
Excerpt: (§1) The bacterial bioassay method used in the present example to test the anti-viral activity of the compounds against different viral targets was described in detail in PCT/2004/000866, incorporated in its entirety herein by reference. Vpu, p7 and M referred to in the table are small membrane proteins encoded by HIV, HCV and Dengue viruses, respectively, which have functional activities supporting viral growth and/or replication.

HCV p7 = molecular target: T2, HCV p7 (Hepatitis C virus genotype 1a, UniProt P27958); assay: Bacterial bioassay, HCV p7; design: scale not given here; conditions: mean bacterial bioassay score; p7 of HCV
T2 construct: expressed in transfected cells
T2 sequence (P27958 747-809): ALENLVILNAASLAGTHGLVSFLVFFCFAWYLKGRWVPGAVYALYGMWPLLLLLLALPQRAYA
Excerpt: as §1

Den M = molecular target: T3, Den M (Dengue virus type 1, UniProt P33478); assay: Bacterial bioassay, Den M; design: scale not given here; conditions: mean bacterial bioassay score; M protein of Dengue virus
T3 construct: expressed in transfected cells
T3 sequence (P33478 206-280): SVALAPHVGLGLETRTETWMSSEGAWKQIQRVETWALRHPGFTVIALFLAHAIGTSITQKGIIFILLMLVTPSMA
Excerpt: as §1

[2] = 168 h, against HIV-1Ba-L in primary macrophages, p24 ELISA after 7 days, estimated from dose response curves (FIG. 1), 0-10 μM, read-out: IC50
[3] = 50% cell viability, MTT assay, estimated in separate experiments at greater compound concentrations
[4] = additional compounds, same assay system (HIV-1Ba-L, primary macrophages), estimated from dose response curves, read-out: Estimated IC50
[5] = additional compounds, same assay system, MTT

SMILES	IC50 (HIV-1 strain Ba-L; [2]) [µM]	AI (Antiviral Index) (HIV-1 strain Ba-L)	CC50 [1, 3] [µM]	Average Bacterial Assay Score, Vpu (Vpu)	Average Bacterial Assay Score, HCV p7 (HCV p7)	Average Bacterial Assay Score, Den M (Den M)	IC50 (HIV-1 strain Ba-L; [4]) [µM]	CC50 [1, 5] [µM]
Cc1cccc2cc(C(=O)NC(=N)N)ccc12 [BIT218, 5-methyl-2-napthoylguanidine]	1.56	>192	> 300	1.8	1.7	1.3		
N=C(N)NC(=O)c1ccc2c(-c3ccoc3)cccc2c1 [BIT311, (5-(3-furyl)-2-napthoyl)guanidine]				0.42	0.42	1.60	< 0.63	10 to 50
COc1cc(C(=O)NC(=N)N)c(OC)c2ccccc12 [BIT304, (1,4-dimethoxy-2-napthoyl)guanidine]				0.62	0.33	1.90	< 10	10 to 50
N=C(N)NC(=O)c1ccc2c(Cl)cccc2c1 [BIT313, (5-chloro-2-napthoyl)guanidine]				0.30	1.30	3.00	< 2.5	10 to 50
Cn1cc(-c2cccc3cc(C(=O)NC(=N)N)ccc23)cn1 [BIT225, 5-(1-methylpyrazol-4-yl)2-naphthoylguanidine]	2.5	>80	> 200	1.4	1.2	0.9		
N=C(N)NC(=O)/C=C/c1cccc(C(=O)c2ccccc2)c1 [BIT216, (3-benzoyl)cinnamoylguanidine]	0.9	28-550	25 to 495	1.3	1.3	1.5		
N=C(N)NC(=O)c1ccc2c(C3CC3)cccc2c1 [BIT312, (5-cyclopropyl-2-napthoyl)guanidine]				0.50	0.80	2.25	< 0.63	10 to 50
N=C(N)NC(=O)c1ccc2c(Br)cccc2c1 [BIT303, (5-bromo-2-napthoyl)guanidine]				0.22	0.00	2.10	< 2.5	10 to 50
Cc1nn(C)c(C)c1-c1cccc2cc(C(=O)NC(=N)N)ccc12 [BIT309, (5-(1,3,5-trimethylpyrazol-4-yl)-2-napthoyl)guanidine]				0.12	0.00	0.00	> 10	> 50
CC(C)Cn1cc(-c2cccc3cc(C(=O)NC(=N)N)ccc23)cn1 [BIT310, (5-(1-isobutyl-1H-pyrazol-4-yl)-2-napthoyl)guanidine]				0.00	0.00	1.60	< 2.5	10 to 50
Cc1ccc2cc(C(=O)NC(=N)N)ccc2c1 [BIT306, (6-methyl-2-napthoyl)guanidine]				0.52	0.25	2.53	< 10	10 to 50
N=C(N)NC(=O)/C=C/c1cccc2c1CCC2 [BIT222, 3(indan-4-yl)-propenoylguanidine]	> 10	>10	> 100	1.2	2.0	2.2		
N=C(N)NC(=O)c1ccc2cc(-c3ccsc3)ccc2c1 [BIT305, (6-(3-thienyl)-2-napthoyl)guanidine]				0.38	0.00	1.15	< 0.63	< 10
N=C(N)NC(=O)c1ccc2c(-c3cccs3)cccc2c1 [BIT308, (5-(thien-2-yl)-2-napthoyl)guanidine]				0.45	0.08	2.40	< 0.63	10 to 50
N=C(N)NC(=O)/C=C/c1cccc2c1OCO2 [BIT217, 2,3-methylenedioxycinnamoyl guanidine]	1.1	>91	> 100	1.8	1.0			
COc1ccc2cc(C(=O)NC(=N)N)ccc2c1Br [BIT223, 5-bromo-6-methoxy-2-napthoylguanidine]	0.3	>1000	> 300	0	0.0			
COc1c(C(=O)NC(=N)N)ccc2ccccc12 [BIT301, (1-methoxy-2-napthoyl)guanidine]				1.54	0.25	0.50	< 2.5	> 50
N=C(N)NC(=O)c1ccc2c(-c3ccsc3)cccc2c1 [BIT224, 5-thiophen-3-yl-2-naphthoylguanidine]	1	>100	> 200	2.2	1.1	1.3		
N=C(N)NC(=O)c1ccc2c(-c3ccccc3)cccc2c1 [BIT307, (5-phenyl-2-napthoyl)guanidine]				0.12	0.08	2.40	< 0.63	10 to 50
COc1cc2ccccc2cc1C(=O)NC(=N)N [BIT302, (3-methoxy-2-napthoyl)guanidine]				1.04	0.42	0.50	< 2.5	> 50
